Source: patent publication US20240385182A1, “MASKED FLUOROGENIC LIPID COMPOUNDS, LIPID PARTICLES COMPRISING THE SAME, AND METHODS OF USE THEREOF” (Rutgers, The State University of New Jersey, priority 2023, published 2024)
pIC50: −log10 of the molar value.

Legend:
HeLa and RAW 264.7 cells = test: MTT cell viability assay; assay type: cell-based; conditions: 8-250 μM, 24-hour period
Protocol: With a feasible liposome preparation and treatment protocol established for live cell imaging, attention was turned to assessing the cytocompatibility of the LNPs, with or without DPPC-TC-ONOO^−, DPPC-TC, and the oxa-spiro[4,5] decenone 6a. A standard 3-(4,5-dimethylthiazol-2-yl)-2,5-diphenyl tetrazolium bromide (MTT) cell viability assay in HeLa and RAW 264.7 cells treated with these molecules (8-250 μM) over a 24-hour period. The dose-response curves provided high IC50 values for each compound: DPPC-TC-ONOO− (≥100 μM), DPPC-TC (≥50 μM), and 6 (≥70 μM).

HeLa cells = test: Confocal imaging and colocalization in live HeLa cells; assay type: cell-based; conditions: for fluorescence at 405/475 nm: LNPs
Protocol: FIGS. 9A-9E: confocal imaging of lipid environments targeted by ONOO^− in live HeLa cells. Cells were seeded into glass microscope dishes, incubated with LNPs (50 μM) and stained with organelle trackers and/or actin dye prior to imaging. LNPs obtained from a 47.5:47.5:5.0 molar ratio of DOTMA, DOPE, and DPPC-TC-ONOO^−. FIG. 9A: cells treated with LNPs, stimulated with IFN-γ/LPS/PMA. Time coarse images acquired upon PMA treatment. FIG. 9B: cells treated with LNPs and 1400 W. FIG. 9C: cells treated with LNPs, then with 1400 W and IFN-γ/LPS/PMA. FIGS. 9D-9E: quantitative colocalization study of cells treated with LNPs and stimulated with IFN-γ/LPS/PMA. Pearson's correlation coefficient (PCC) was calculated for quantitative assessment. Organelle trackers: ER-Tracker™, MitoTracker™, CellLight™ Golgi-RFP, LysoTracker™. Cell cytoskeleton was assessed with CellMask™ Deep Red Actin Tracking Stain. DPPC-TC channel: 405/475 nm. Scale bars=20 μm (FIGS. 9A-9D) or 5 μm (FIG. 9E). With the utility of DPPC-TC-ONOO^− proven in synthetic protocell membranes, incorporation into live HeLa and RAW 264.7 cells was sought, which are relevant to redox-induced stress and have well-recognized pathways for RNS and ROS production. Lipid nanoparticles (LNPs) (˜100 nm in diameter) was used to deliver DPPC-TC-ONOO− into cells. This method circumvented the limited solubility of DPPC-TC-ONOO− due to the relatively hydrophobic butanone-coumarin motif. LNPs were obtained via sonication from 1,2-di-O-octadecenyl-3-trimethylammonium propane (DOTMA), 1,2-dioleoyl-sn-glycero-3-phosphoethanolamine (DOPE), and DPPC-TC-ONOO− (47.5:47.5:5.0 molar ratio), which were hydrated with a 300 mM sucrose solution. DOTMA and DOPE were chosen as the carrier lipids due to their cationic/zwitterionic natures, which has been postulated to enhance uptake through the cell membrane. The impact of different LNP compositions and incubation times on the cellular incorporation of DPPC-TC-ONOO^− was assessed. […] Specifically, LNPs containing greater than 10 mol % DPPC-TC-ONOO− were considerably more heterogenous in size (up to […] observed, in contrast to ˜100 nm) and nonuniform in vesicle lamellarity. Those with less than 4 mol % DPPC-TC-ONOO− led to insufficient fluorescence signal. To balance these counteracting factors, 5 mol % DPPC-TC-ONOO− was used, with 47.5 mol % DOTMA and DOPE, each. In these initial assays, cells were incubated with LNPs for up to 15 hours to complete the uptake and intracellular localization of DPPC-TC-ONOO−. Shorter incubation times (3-to-5 hours) led to its uptake but not subcellular localization. […] However, high serum concentration in DMEM caused interference between LNPs and serum-protein, resulting in aggregate formation as observed by microscopy. To overcome this obstacle, LNPs (50 μM) were used in a mixture of 2/3 volumetric ratio of sucrose solution and Opti-MEM™, a reduced serum medium known to increase the efficiency of lipofection. […] For a physiologically relevant stress model, the standard stimulation condition involving IFN-γ/LPS/PMA was employed. Treatment of cells with IFN-γ/LPS leads to the endogenous production of nitric oxide and PMA provokes increased levels of superoxide. These two reactive species combine to form peroxynitrite, as described elsewhere herein. […] The intracellular redox selectivity of DPPC-TC-ONOO^− was also assessed using N-(3-(aminomethyl)benzyl)-acetamidine, known as 1400 W, which inhibits the production of NO· by irreversibly binding to iNOS. […] To determine whether DPPC-TC-ONOO^− localizes and functions at a specific subcellular compartment in HeLa, a comprehensive colocalization study was performed with dyes specific for lipid-rich and membrane-enclosed organelles, including the ER, mitochondrion, Golgi apparatus, and lysosome (FIGS. 9D-9E). In addition, actin stain was used to gain a visual insight into the cytoskeletal structure of the whole cell. […]

## CCCCCCCCCCCCCCCC(=O)OCC(COP(=O)([O-])OCC[N+](C)(C)Cc1cn(-c2cc3ccc(OC(=O)Oc4ccc(CCC(=O)C(F)(F)F)cc4)cc3oc2=O)nn1)OC(=O)CCCCCCCCCCCCCCC (racemic) [DPPC-TC-ONOO^−]
HeLa and RAW 264.7 cells
  pIC50: ≤ 4.00
HeLa cells; 1400 W only or 1400 W and IFN-γ/LPS/PMA
  signal in the DPPC-TC channel: no observable signal
HeLa cells; DPPC-TC signal vs ER-Tracker Green
  Pearson's correlation coefficient (PCC): 0.938
HeLa cells; no stimulation
  fluorescence at 405/475 nm: no observable signal
HeLa cells; stimulation with IFN-γ/LPS/PMA
  fluorescence at 405/475 nm: substantial increase in fluorescence
HeLa cells; dyes specific for Golgi, mitochondria, and lysosomes
  colocalization correlation: less significant correlation
HeLa cells; post IFN-γ/LPS stimulation, earliest possible image acquisition time
  time point at which intracellular fluorescence was observable upon PMA addition: 3 min
